Values of other authors, collected in patent US20140080846A1, “Method of treating orphan respiratry diseases using doxofylline” (priority 2012, published 2014).

How the values were obtained:
[1] = for subjects dropped out of the study due to side effects: large randomized clinical study, 12 week testing period, asthma patients
[2] = intravenous, CF patients

## Cn1c(=O)c2c(ncn2CC2OCCO2)n(C)c1=O [doxofylline, 7-(1,3-dioxolan-2-ylmethyl)-1,3-dimethylpurine-2,6-dione]
[1]; compared to theophylline
  efficacy in treating chronic asthma: as effective as theophylline
[1]
  subjects dropped out of the study due to side effects: 11%

## Cn1c(=O)c2[nH]cnc2n(C)c1=O [theophylline]
[1]
  subjects dropped out of the study due to side effects: 31%
other
  patients treated in an emergency setting for overdose who die: Ten
[2]
  effect on Forced Expiratory Volume at 1 second (FEV1) and Forced Expiratory Flow at 0.75 seconds (FEF 0.75): positive results
